{"source": "patent EP4378455A1", "about": "“A PHARMACEUTICAL FORMULATION COMPRISING EMPAGLIFLOZIN” (SANOVEL ILAC SANAYI VE TICARET A.S., priority 2022, dated 2024)", "origin": "cited, not measured here", "data": [{"smiles": "OC[C@H]1O[C@@H](c2ccc(Cl)c(Cc3ccc(O[C@H]4CCOC4)cc3)c2)[C@H](O)[C@@H](O)[C@@H]1O", "note": "[Empagliflozin, (1S)-1,5-anhydro-1-(4-chloro-3-{4-[(3S)-tetrahydrofuran-3-yloxy]benzyl}phenyl)-D-glucitol]", "values": [{"measurement": "solubility in acetonitrile", "setting": "acetonitrile", "value": "slightly soluble"}, {"measurement": "solubility in ethanol", "setting": "ethanol", "value": "slightly soluble"}, {"measurement": "solubility in methanol", "setting": "methanol", "value": "sparingly soluble"}, {"measurement": "solubility in toluene", "setting": "toluene", "value": "practically insoluble"}, {"measurement": "solubility in water", "setting": "water (pH 1-7.4)", "value": "very slightly soluble"}]}]}
